In patent US11649218B2, “C-Abl tyrosine kinase inhibitory compound embodiments and methods of making and using the same” (The USA, as represented by the Secretary, Dept. of Health …, priority 2018, dated 2023):

Experiments:
CML (K562) cell line = test: K562 cell proliferation inhibition by MTT assay, 48 hours; assay type: cell-based; conditions: K562, 48 hours; for AC50: Homo sapiens, determined in different assays
Protocol: In this example, the ability of two compound embodiments described here, NCGC00373060 and NCGC00373056, to induce cell death in the CML (K562) cell line was evaluated. The leukemia cells were incubated with different concentrations of the compounds for 48 hours, and the cell proliferation inhibition was evaluated by the MTT assay. […] The leukemia cells were incubated with different concentrations of each compound embodiment for 48 hours, and the cell proliferation inhibition was evaluated by the MTT assay.

neurons = test: Apoptotic nuclei induced by Aβ fibrils, Hoescht staining; assay type: cell-based
Protocol: Additional results from another compound embodiment, NCGC00355553, are provided by FIG. 9C. Apoptotic nuclei were evaluated by Hoescht staining.

[1] = Pharmacokinetic profile in brain; assay type: in vivo, mice; conditions: 12.5 mg/kg IP
[2] = tested on: P. falciparum strain NF54 asexual parasites; test: Asexual stage parasite growth inhibition, SYBR Green assay, 72 hours; assay type: cell-based; conditions: for % Killing / IC50: NF54, 72 hours; for IC50: Plasmodium falciparum
Protocol: In this example, several of the c-Abl inhibitors were tested in the asexual […] strain of P. falciparum parasites for activity against malaria. […] The pre-diluted parasites were dispensed into a 1536-well plate (2.5 μL/well). […] The fluorescence of each well was measured at 520 nm following excitation at 490 nm using a ViewLux platereader (PerkinElmer).

hippocampal neurons [3] = test: Neuroprotection against Aβ fibrils, MTT assay; assay type: cell-based; conditions: 0.01, 0.1 and 1 μM; 5 μM Aβ peptide, 24 hours
Protocol: Compound embodiments NCGC00373060 and NCGC00373056 also conferred neuroprotection against Aβ fibrils. […] Additional data from other compounds are provided by FIGS. 8C-8E. Neurons were incubated with 5 μM Aβ peptide in presence of the different compound concentrations for 24 hours and cell viability was evaluated by the MTT assay. Results from additional compounds are provided by FIG. 8C.

Leukemia K562 cell = Leukemia K562 cell proliferation/viability assay (CellTiterGlo, 48 hours); assay type: cell-based; design: unit not given here; conditions: K562 cells
Outline: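 BCR-Abl-dependent K562 cells treated with compound for 48 hours in an HTS-adapted format. Viability read out with CellTiterGlo reagent.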

[4] = Pharmacokinetic profile in plasma; assay type: in vivo, mice; conditions: 12.5 mg/kg IP
5XFAD mice = test: 5XFAD AD mice model, water maze and amyloid burden; assay type: in vivo; conditions: 9-month-old 5XFAD mice, 12.5 mg/kg daily for 30 days, IP
Source text: . First, the 5XFAD mice was used as the AD model. […] .

TLE mice model [5] = test: Pilocarpine TLE epilepsy model, IP pre-treatment; conditions: 5 mg/Kg IP each day three days before Pilocarpine
Protocol: The injected animals were observed by 60 min after the Pilocarpine.

hippocampal neurons [6] = test: Neuronal death induced by Glutamate, MTT cell viability test
TLE mice model [7] = test: Pilocarpine-induced status epilepticus (SE) after 15 days of supplemented diet; assay type: in vivo, mice (C57BL/6)
Protocol: In this example, the ability of compound embodiments of the present disclosure to increase survival and diminish seizure symptoms in a TLE mice model was evaluated. […] The animals' weights were determined the week before and during the two weeks of c-Abl inhibitors treatment (results are provided in Table 12 and are illustrated graphically in FIG. 28). After 15 days of feeding, status epilepticus (SE) induction was evaluated. The mice were IP injected with Scopolamine (1.5 mg/Kg) and after 15 minutes, the SE was induced by IP injection of Pilocarpine (420 mg/Kg). The animals' behavior and the seizures induction was evaluated according to Racine's scale and the survival was determined during 60 minutes post-SE induction. […] Results are tabulated in Table 13, below and also are illustrated graphically in FIGS. 29A-29D.

[8] = mean, diet 67 ppm NCGC00373060 or 200 ppm Nilotinib

Row | Structure (SMILES) | AC50 (CML (K562) cell line) [µM] | Brain concentration ([1]; Time 0.5) [µmol/kg] | Brain concentration ([1]; Time 1) [µmol/kg] | Brain concentration ([1]; Time 2) [µmol/kg] | Brain concentration ([1]; Time 4) [µmol/kg] | Brain concentration ([1]; Time 7) [µmol/kg] | Brain concentration ([1]; Time 24) [µmol/kg] | % Killing [2] [%] | IC50 [2] [µM] | Efficacy (Leukemia K562 cell) | Plasma concentration ([4]; Time 0.5) [nM] | Plasma concentration ([4]; Time 1) [nM] | Plasma concentration ([4]; Time 2) [nM] | Plasma concentration ([4]; Time 4) [nM] | Plasma concentration ([4]; Time 7) [nM] | Plasma concentration ([4]; Time 24) [nM] | also measured
1 | CNS(=O)(=O)c1cccc(-c2ccc3c(c2)C(=O)Nc2cc(OC(F)(F)F)ccc2O3)c1 [NCGC00373056, N-Methyl-3-(11-oxo-8-(trifluoromethoxy)-10H-dihydrodibenzo[b,f][1,4]oxazepin-2-yl)benzenesulfonamide] | 0.5 | 2.658 | 3.381 | 2.212 | 1.065 | 0.202 | 0.004 | 96.5 | 1.36 | −78.5 | 16559 | 8627 | 6747 | 2600 | 421 | 9 | induction of cell death (CML (K562) cell line; MTT): able to induce cell death; apoptotic nuclei induced by Aβ fibrils (neurons): prevention of the increases in apoptotic nuclei induced by Aβ fibrils; Brain concentration ([1]; Time 0.083): 1.291 µmol/kg; Brain concentration ([1]; Time 0.25): 2.649 µmol/kg; activity against malaria parasites ([2]; NF54): low single digit uM range; neuroprotection against Aβ toxicity (hippocampal neurons [3]): protect neurons against the Aβ toxicity; Plasma concentration ([4]; Time 0.083): 12080 nM; Plasma concentration ([4]; Time 0.25): 16961 nM; cognitive decline, water maze (5XFAD mice): protected 5XFAD mice against the cognitive decline
2 | O=C1Nc2cc(OC(F)(F)F)ccc2Oc2ccc(-c3ccnc(N4CCNCC4)c3)cc21 [NCGC00373060, 2-(2-(Piperazin-1-yl)pyridin-4-yl)-8-(trifluoromethoxy)dibenzo[b,j][1,4]oxazepin-11(10H)-one] | 5 | 0.275 | 0.595 | 0.912 | 1.351 | 1.887 | 1.198 | 89.9 | 1.63 | −99.1 | 4784 | 7844 | 4112 | 2709 | 1723 | 581 | mortality associated to the epileptic status (TLE mice model [5]): decreases the mortality associated to the epileptic status; seizures, latency time (TLE mice model [5]): prevented the seizures increasing the latency time; Brain concentration ([1]; Time 0.167): 0.208 µmol/kg; Brain concentration ([1]; Time 48): 0.493 µmol/kg; Brain concentration ([1]; Time 72): 0.208 µmol/kg; Brain concentration ([1]; Time 96): 0.089 µmol/kg; Brain concentration ([1]; Time 120): 0.044 µmol/kg; Brain concentration ([1]; Time 168): 0.010 µmol/kg; protection against neuronal death induced by Glutamate (hippocampal neurons [6]): protects neurons against neuronal death induced by Glutamate; Survival % (TLE mice model [7]; individual mice, 60 minutes post-SE induction): 100%; Latency SE (TLE mice model [7]; individual mice, diet 67 ppm NCGC00373060 or 200 ppm Nilotinib): 19 min; Survival %, mean (TLE mice model [7]; mean, 60 minutes post-SE induction): 100%; Latency SE, mean (TLE mice model [7]; [8]): 19 min; SE %, mean (TLE mice model [7]; [8]): 40%; Plasma concentration ([4]; Time 0.167): 4440 nM; Plasma concentration ([4]; Time 48): 138 nM; Plasma concentration ([4]; Time 72): 70 nM; Plasma concentration ([4]; Time 96): 36 nM; Plasma concentration ([4]; Time 120): 11 nM; Plasma concentration ([4]; Time 168): 4 nM
